Patent US20110130380A1, “Heteroaryl Kinase Inhibitors” (priority 2009, published 2011)
pIC50: −log10 of the molar value.

Biological target: Cdk9/cyclinT1 (Homo sapiens, UniProt P50750)
Experiment: Cdk9/cyclinT1 IMAP Protocol (fluorescence polarization kinase assay)
Conditions: Cdk9_cyclinT1_IC50, Table V; generated using one of the two Cdk9/cyclinT1 assays (IMAP or Alpha Screen), not stated which; ATP 6 uM

Chain of Cdk9/cyclinT1 (P50750 whole entry): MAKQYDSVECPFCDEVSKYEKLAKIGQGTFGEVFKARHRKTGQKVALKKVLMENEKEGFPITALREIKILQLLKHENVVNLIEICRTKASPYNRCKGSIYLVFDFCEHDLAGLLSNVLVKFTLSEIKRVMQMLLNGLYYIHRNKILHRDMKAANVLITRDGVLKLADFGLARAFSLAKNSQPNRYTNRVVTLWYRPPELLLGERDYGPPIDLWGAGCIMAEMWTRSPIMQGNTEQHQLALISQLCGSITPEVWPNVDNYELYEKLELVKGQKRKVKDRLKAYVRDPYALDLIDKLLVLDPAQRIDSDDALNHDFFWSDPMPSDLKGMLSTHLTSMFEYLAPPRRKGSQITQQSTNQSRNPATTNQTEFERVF
Chain of Cdk9/cyclinT1 (O60563 whole entry partner): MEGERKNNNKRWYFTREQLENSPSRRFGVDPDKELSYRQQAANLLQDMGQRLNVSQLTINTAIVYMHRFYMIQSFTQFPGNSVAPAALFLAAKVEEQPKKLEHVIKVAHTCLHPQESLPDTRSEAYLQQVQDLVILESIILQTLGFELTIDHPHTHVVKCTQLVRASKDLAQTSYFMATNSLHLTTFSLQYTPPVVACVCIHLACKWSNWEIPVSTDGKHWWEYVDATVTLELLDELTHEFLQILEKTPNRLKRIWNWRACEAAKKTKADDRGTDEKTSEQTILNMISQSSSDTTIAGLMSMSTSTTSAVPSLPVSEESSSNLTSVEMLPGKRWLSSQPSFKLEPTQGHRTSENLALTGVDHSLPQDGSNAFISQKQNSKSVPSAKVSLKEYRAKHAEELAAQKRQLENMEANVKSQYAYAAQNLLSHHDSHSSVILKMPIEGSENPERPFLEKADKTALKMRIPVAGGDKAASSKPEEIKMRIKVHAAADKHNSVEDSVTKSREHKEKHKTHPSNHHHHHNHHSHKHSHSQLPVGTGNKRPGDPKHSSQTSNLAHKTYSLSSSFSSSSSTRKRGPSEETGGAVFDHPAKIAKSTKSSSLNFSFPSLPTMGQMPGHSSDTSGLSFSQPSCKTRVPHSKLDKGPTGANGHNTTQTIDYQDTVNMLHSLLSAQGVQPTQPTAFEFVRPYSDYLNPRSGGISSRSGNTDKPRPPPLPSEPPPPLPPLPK

SMILES	pIC50
CO[C@H]1CNC[C@@H]1C(=O)Nc1cc(-c2nc(NCC3CCOCC3)c(F)cc2Cl)c(Cl)cn1 [Example 181, (3S,4R)-4-Methoxy-pyrrolidine-3-carboxylic acid {3,5′-dichloro-5-fluoro-6-[(tetrahydro-pyran-4-ylmethyl)-amino]-[2,4′]bipyridinyl-2′-yl}-amide]	9.00
CC1(C)CC(CNc2cccc(-c3cc(NC(=O)[C@@H]4CCCNC4)ncc3Cl)n2)CCO1 (stereo partly drawn) [Example 94, (R)-Piperidine-3-carboxylic acid {5′-chloro-6-[(2,2-dimethyl-tetrahydro-pyran-4-ylmethyl)-amino]-[2,4′]bipyridinyl-2′-yl}-amide]	> 8.10
O=C(Nc1cc(-c2cccc(NCC3CC3)n2)c(Cl)cn1)[C@@H]1CCCNC1 [Example 20, (R)-Piperidine-3-carboxylic acid [5′-chloro-6-(cyclopropylmethyl-amino)-[2,4′]bipyridinyl-2′-yl]-amide]	7.36
O=C(Nc1cc(-c2ccc(Cl)c(NCC3CCOCC3)n2)c(Cl)cn1)[C@@H]1CCCNC1 [Example 74, (R)-Piperidine-3-carboxylic acid {5,5′-dichloro-6-[(tetrahydro-pyran-4-ylmethyl)-amino]-[2,4′]bipyridinyl-2′-yl}-amide]	> 8.10
N[C@@H]1CC[C@H](C(=O)Nc2cc(-c3nc(NCC4CCOCC4)ccc3Cl)c(Cl)cn2)C1 [Example 99, (1S,3R)-3-Amino-cyclopentanecarboxylic acid {3,5′-dichloro-6-[(tetrahydro-pyran-4-ylmethyl)-amino]-[2,4′]bipyridinyl-2′-yl}-amide]	> 8.10
CC1(C)CCC(C(=O)Nc2cc(-c3ccc(F)c(NCC4CCOCC4)n3)c(Cl)cn2)CN1 (centres unmarked) [Example 210, 6,6-Dimethyl-piperidine-3-carboxylic acid {5′-chloro-5-fluoro-6-[(tetrahydro-pyran-4-ylmethyl)-amino]-[2,4′]bipyridinyl-2′-yl}-amide]	9.00
COC(=O)N1CCC[C@H](C(=O)Nc2cc(-c3nc(N[C@H](C)C4CCOCC4)ccc3Cl)c(Cl)cn2)C1 [Example 153, (S)-3-{3,5′-Dichloro-6-[(R)-1-(tetrahydro-pyran-4-yl)-ethylamino]-[2,4′]bipyridinyl-2′-ylcarbamoyl}-piperidine-1-carboxylic acid methyl ester]	7.59
CC1(C)C[C@@H](CNc2ccc(Cl)c(-c3cc(NC(=O)[C@H]4CNCCO4)ncc3Cl)n2)CCO1 (single isomer, unassigned) [Example 155]	9.00
CC1(C)COCC(CNc2cccc(-c3cc(NC(=O)[C@@H]4CCCNC4)ncc3Cl)n2)O1 (stereo partly drawn) [Example 219, (R)-Piperidine-3-carboxylic acid {5′-chloro-6-[(6,6-dimethyl-[1,4]dioxan-2-ylmethyl)-amino]-[2,4′]bipyridinyl-2′-yl}-amide]	9.00
O=C(Nc1cc(-c2cccc(NCC3CCOCC3)n2)c(Cl)cn1)C1(F)CCCNC1 (single isomer, unassigned) [Example 118]	6.67
CC(C)C(=O)Nc1cc(-c2cccc(NCC3CCOCC3)n2)c(Cl)cn1 [Example 70, N-{5′-Chloro-6-[(tetrahydro-pyran-4-ylmethyl)-amino]-[2,4]bipyridinyl-2′-yl}-isobutyramide]	7.96
O=C(Nc1cc(-c2cccc(NCC3CCOCC3)n2)c(Cl)cn1)[C@@H]1CCCN1 [Example 58, (S)-Pyrrolidine-2-carboxylic acid {5′-chloro-6-[(tetrahydro-pyran-4-ylmethyl)-amino]-[2,4′]bipyridinyl-2′-yl}-amide]	6.94
O=C(Nc1cc(-c2cccc(NCC3CCOCC3)n2)c(Cl)cn1)[C@@H]1CC[C@@H](C(F)(F)F)NC1 (racemic) [Example 161, (3R,6S)-/(3S,6R)-6-Trifluoromethyl-piperidine-3-carboxylic acid {5′-chloro-6-[(tetrahydro-pyran-4-ylmethyl)-amino]-[2,4′]bipyridinyl-2′-yl}-amide]	8.05
C[C@H]1CC[C@H](C(=O)Nc2cc(-c3cccc(NCC4CCOCC4)n3)c(Cl)cn2)CN1 (single isomer, unassigned) [Example 147]	8.30
O=C(Nc1cc(-c2cccc(NCC3CCOCC3)n2)c(Cl)cn1)[C@H]1CCCO1 [Example 68, (R)-Tetrahydro-furan-2-carboxylic acid {5′-chloro-6-[(tetrahydro-pyran-4-ylmethyl)-amino]-[2,4′]bipyridinyl-2′-yl}-amide]	7.96
O=C(Nc1cc(-c2nc(NCC3CCOCC3)ccc2Cl)c(Cl)cn1)[C@@H]1CCNC1 [Example 88, (R)-Pyrrolidine-3-carboxylic acid {3,5′-dichloro-6-[(tetrahydro-pyran-4-ylmethyl)-amino]-[2,4′]bipyridinyl-2′-yl}-amide]	> 8.10

SMILES	pIC50
CC(C)S(=O)(=O)N1CCC[C@H](C(=O)Nc2cc(-c3nc(NCC4CCOCC4)ccc3Cl)c(Cl)cn2)C1 [Example 112, (S)-1-(Propane-2-sulfonyl)-piperidine-3-carboxylic acid {3,5′-dichloro-6-[(tetrahydro-pyran-4-ylmethyl)-amino]-[2,4′]bipyridinyl-2′-yl}-amide]	> 8.10
O=C(Nc1cc(-c2cccc(NCC3CCOCC3)n2)c(Cl)cn1)[C@@H]1CCCN(CCF)C1 [Example 10, (R)-1-(2-Fluoro-ethyl)-piperidine-3-carboxylic acid {5′-chloro-6-[(tetrahydro-pyran-4-ylmethyl)-amino]-[2,4′]bipyridinyl-2′-yl}-amide]	6.79
C[C@@H]1CC[C@@H](C(=O)Nc2cc(-c3cccc(NC[C@@H]4CCOC(C)(C)C4)n3)c(Cl)cn2)CN1 (single isomer, unassigned) [Example 242]	9.00
C[C@H](Nc1cccc(-c2cc(NC(=O)[C@@H]3CCCNC3)ncc2Cl)n1)C1CCOCC1 [Example 136, (R)-Piperidine-3-carboxylic acid {5′-chloro-6-[(S)-1-(tetrahydro-pyran-4-yl)-ethylamino]-[2,4′]bipyridinyl-2′-yl}-amide]	7.89
O=C(Nc1cc(-c2cccc(NCC3CCOCC3)n2)ccn1)[C@@H]1CCCNC1 [Example 15, (R)-Piperidine-3-carboxylic acid {6-[(tetrahydro-pyran-4-ylmethyl)-amino]-[2,4′]bipyridinyl-2′-yl}-amide]	> 8.10
O=C(Nc1cc(-c2cccc(NCc3cccc(F)c3)n2)c(Cl)cn1)[C@H]1CCCNC1 [Example 4, (S)-Piperidine-3-carboxylic acid [5′-chloro-6-(3-fluoro-benzylamino)-[2,4′]bipyridinyl-2′-yl]-amide]	7.77
CO[C@H]1CNC[C@@H]1C(=O)Nc1cc(-c2ccc(F)c(NCC3CCOCC3)n2)c(Cl)cn1 [Example 144, (3S,4R)-4-Methoxy-pyrrolidine-3-carboxylic acid {5′-chloro-5-fluoro-6-[(tetrahydro-pyran-4-ylmethyl)-amino]-[2,4′]bipyridinyl-2′-yl}-amide]	9.00
O=C(Nc1cc(-c2cccc(NCc3ccncc3)n2)c(Cl)cn1)[C@@H]1CCCNC1 [Example 54, (R)-Piperidine-3-carboxylic acid {5′-chloro-6-[(pyridin-4-ylmethyl)-amino]-[2,4′]bipyridinyl-2′-yl}-amide]	> 8.10
C[C@@H]1CC(CNc2cccc(-c3cc(NC(=O)C4CNCCOC4)ncc3Cl)n2)C[C@H](C)O1 (stereo partly drawn) [Example 203, [1,4]Oxazepane-6-carboxylic acid {5′-chloro-6-[((2R,6S)-2,6-dimethyl-tetrahydro-pyran-4-ylmethyl)-amino]-[2,4′]bipyridinyl-2′-yl}-amide]	8.52
CC1(C)COC[C@@H](CNc2nc(-c3cc(NC(=O)[C@@H]4CCCNC4)ncc3Cl)ccc2F)O1 (single isomer, unassigned) [Example 263]	9.00
O=C(Nc1cc(-c2cccc(NC3CCOCC3)n2)c(Cl)cn1)[C@@H]1CCCNC1 [Example 33, (R)-Piperidine-3-carboxylic acid [5′-chloro-6-(tetrahydro-pyran-4-ylamino)-[2,4′]bipyridinyl-2′-yl]-amide]	7.12
O=C(Nc1cc(-c2cccc(NCC3CCOCC3)n2)c(Cl)cn1)C1(F)CCCNC1 (single isomer, unassigned) [Example 117]	6.64
C[C@@H]1CC[C@H](C(=O)Nc2cc(-c3cccc(NCC4CCOCC4)n3)c(Cl)cn2)CN1 (single isomer, unassigned) [Example 142]	6.82
N[C@H]1CC[C@@H](C(=O)Nc2cc(-c3cccc(NCC4CCOCC4)n3)c(Cl)cn2)C1 [Example 48, (1R,3S)-3-Amino-cyclopentanecarboxylic acid {5′-chloro-6-[(tetrahydro-pyran-4-ylmethyl)-amino]-[2,4′]bipyridinyl-2′-yl}-amide]	> 8.10
O=C(Nc1cc(-c2cccc(NCC3CCOCC3)n2)c(Cl)cn1)[C@H]1CCNC1 [Example 73, (S)-Pyrrolidine-3-carboxylic acid {5′-chloro-6-[(tetrahydro-pyran-4-ylmethyl)-amino]-[2,4′]bipyridinyl-2′-yl}-amide]	7.89
COC(=O)N1CCC[C@H](C(=O)Nc2cc(-c3nc(NCC4CCOCC4)ccc3Cl)c(Cl)cn2)C1 [Example 105, (S)-3-{3,5′-Dichloro-6-[(tetrahydro-pyran-4-ylmethyl)-amino]-[2,4′]bipyridinyl-2′-ylcarbamoyl}-piperidine-1-carboxylic acid methyl ester]	> 8.10

Same assay, conditions: Cdk9_cyclinT1_IC50, generated using one of the two Cdk9/cyclinT1 assays (IMAP or Alpha Screen), not specified per value; ATP 6 uM

SMILES	pIC50
Cc1ncc(-c2cc(NC(=O)C(C)C)ncc2Cl)cc1NCC1CCOCC1 [Example 310, N-{5′-Chloro-6-methyl-5-[(tetrahydro-pyran-4-ylmethyl)-amino]-[3,4′]bipyridinyl-2′-yl}-isobutyramide]	6.83
COc1ccncc1-c1cc(NC(=O)[C@@H]2CCCNC2)ncc1Cl [Example 306, (R)-Piperidine-3-carboxylic acid (5′-chloro-4-methoxy-[3,4′]bipyridinyl-2′-yl)-amide]	7.34
CC(C)C(=O)Nc1cc(-c2cc(NCC3CCOCC3)cnc2Cl)c(Cl)cn1 [Example 313, N-{2,5′-Dichloro-5-[(tetrahydro-pyran-4-ylmethyl)-amino]-[3,4′]bipyridinyl-2′-yl}-isobutyramide]	> 8.10
